In patent publication US4464467A, “Antitumor antibiotics produced by new streptomyces” (Bristol-Myers Company, priority 1982, dated 1984):

Columns and labels:
[1] = test system: lymphatic leukemia P388; test: Antitumor activity against leukemia P388, second experiment (Table 10); assay type: in vivo, male BDF1 mice; conditions: for Survivors Day 5 / Survivors Day 22 / Average weight change / MST % T/C: QD 1→9; for antitumor activity against leukemia P388 (in words): second experiment, ip, once daily for 9 days, comparative
Protocol: In this experiment lymphatic leukemia P388 was implanted intraperitoneally into male BDF1 mice at an inoculum size of 10^6 cells per mouse. Test compounds were dissolved in 0.9% saline containing 10% dimethylsulfoxide. Graded doses of test compounds were administered to mice intraperitoneally 24 hours after the tumor implantation, and the treatment was continued once daily for 9 days.
Tumor inoculum: 10^6 ascites cells implanted
Treatment: QD 1→9, i.p.
Evaluation: MST = median survival
Effect: % T/C = (MST treated/MST control) ×
Criteria: % T/C ≥125 considered as significant antitumor activity

[2] = test system: P388 mouse leukemia; test: P388 mouse leukemia test (comparison of 2-hydroxy isomers); assay type: in vivo; conditions: β-hydroxy versus α-hydroxy isomers
Source text: The diastereoisomers of BBM-2040A and B of the present invention have been disclosed in Symposium Papers of the 24th Symposium on the Chemistry of Natural Products (Osaka, Japan, Oct. 13-16, 1981): Paper #72, pp. 552-559. Compounds 31b and 32b in this paper have the structures [drawing 2] and may be differentiated from BBM-2040A and B of the present invention in the configuration of the C-2 hydroxy group, i.e. BBM-2040A and B have the C-2 hydroxy group in the α-configuration while the corresponding 31b and 32b diastereoisomers have the β-configuration at the C-2 hydroxy group.

[3] = test system: Streptococcus pyogenes, Micrococcus luteus, Micrococcus flavus and Mycobacterium strains; test: Antibacterial activity, agar dilution; assay type: cell-based; conditions: against Streptococcus pyogenes
Protocol: The minimum inhibitory concentration (MIC) of BBM-2040 was determined for a variety of gram-positive, gram-negative and acid-fast bacteria by the serial two-fold agar dilution method. Nutrient agar medium was used for gram-positive and gram-negative organisms and No. 1001 medium (3% glycerol, 0.3% sodium L-glutamate, 0.2% peptone, 0.31% Na2 HPO4, 0.1% KH2 PO4, 0.005% ammonium citrate, 0.001% MgSO4 and 1.5% agar) for acid-fast organisms.

[4] = test system: lymphocytic leukemia P388; test: Antitumor activity against leukemia P388 in mice (Table 9); assay type: in vivo, mice (BDF1 strain); conditions: first experiment; ip, qd 1→9; comparative
Protocol: The antitumor activity of BBM-2040A and B was determined in mice (BDF1 strain) against lymphocytic leukemia P388. Each mouse was inoculated intraperitoneally with 10^6 cells of tumor. Graded doses of test compounds were administered to mice intraperitoneally 24 hours after the tumor implantation. The treatments were given once daily for 9 days (qd 1→9 schedule). Neothramycin was comparatively tested as a reference compound.
*ratio of median survival time of test and control animals

[5] = Acute toxicity, single intraperitoneal administration; design: species or system mice (ddY strain); conditions: mouse, in vivo, ip, ddY mice
Protocol: The intraperitoneal LD50 of neothramycin has been reported to be 20-30 mg/kg.

[6] = Solubility
[7] = Stability in solutions
[8] = in benzene, chloroform and n-hexane
[9] = in ethyl acetate, acetone and water
[10] = in methanol, ethanol, n-butanol and pyridine

Compound | Survivors Day 5 ([1]; 0.1 mg/kg/day ip) | Survivors Day 22 ([1]; 0.1 mg/kg/day ip) | Survivors Day 5 ([1]; 0.3 mg/kg/day ip) | Survivors Day 22 ([1]; 0.3 mg/kg/day ip) | Survivors Day 5 ([1]; 1 mg/kg/day ip) | Survivors Day 22 ([1]; 1 mg/kg/day ip) | antitumor activity in the P388 mouse leukemia test (in words) [2] | antibacterial activity (in words) [3] | antitumor activity against leukemia P388 (in words) [4] | LD50 [5] [mg/kg] | solubility [6, 8] | solubility [6, 9] | solubility [6, 10] | MST % T/C ([1]; 0.1 mg/kg/day ip) [%] | MST % T/C ([1]; 0.3 mg/kg/day ip) [%] | MST % T/C ([1]; 1 mg/kg/day ip) [%] | MST % T/C ([1]; 3 mg/kg/day ip) [%] | Survivors Day 5 ([1]; 3 mg/kg/day ip) | Survivors Day 22 ([1]; 3 mg/kg/day ip) | antitumor activity against leukemia P388 (in words) [1] | also measured
COc1cc2c(cc1O)N[C@H](OC)[C@@H]1C[C@@H](O)CN1C2=O [2β-Hydroxy epimer of BBM-2040 A] | 6/6 | 0/6 | 6/6 | 0/6 | 6/6 | 0/6 | – | – | – | – | – | – | – | – | – | – | – | – | – | – | Survivors Day 5 ([1]; 0.03 mg/kg/day ip): 6/6; Survivors Day 22 ([1]; 0.03 mg/kg/day ip): 0/6
COc1cc2c(cc1O)N[C@H](OC)[C@@H]1C[C@@H](O)CN1C2=O [31b, reference compound] | – | – | – | – | – | – | essentially devoid of antitumor activity | – | – | – | – | – | – | – | – | – | – | – | – | – | –
COc1cc2c(cc1O)N=C[C@@H]1C[C@@H](O)CN1C2=O [32b, reference compound] | – | – | – | – | – | – | essentially devoid of antitumor activity | – | – | – | – | – | – | – | – | – | – | – | – | – | –
COc1cc2c(cc1O)N[C@H](OC)[C@@H]1C[C@H](O)CN1C2=O [BBM-2040A, (2S, 11aS)-5,10,11,11a-tetrahydro-2,8-dihydroxy-7,11-dimethoxy-5-oxo-1H-pyrrolo(2,1-c) (1,4)benzodiazepine] | 6/6 | 0/6 | 6/6 | 0/6 | 6/6 | 0/6 | marked activity | weak antibacterial activity | similarly active | 34 | practically insoluble | slightly soluble | readily soluble | 100 | 117 | 133 | 142 | 6/6 | 0/6 | similarly active | Average weight change ([1]; 0.1 mg/kg/day ip): +1.5 g; Average weight change ([1]; 0.3 mg/kg/day ip): +1.3 g; MST % T/C ([1]; 10 mg/kg/day ip): 163%; Survivors Day 5 ([1]; 10 mg/kg/day ip): 6/6; Survivors Day 22 ([1]; 10 mg/kg/day ip): 1/6
COc1cc2c(cc1O)N=C[C@@H]1C[C@H](O)CN1C2=O [BBM-2040B] | – | – | – | – | – | – | marked activity | weak antibacterial activity | somewhat less active than BBM-2040A | 57 | practically insoluble | slightly soluble | readily soluble | – | – | – | – | – | – | – | stability in solutions [7]: relatively unstable
COc1cc2c(cc1O)N=CC1CCC(O)N1C2=O (stereo not drawn) [Neothramycin] | 6/6 | 0/6 | 6/6 | 0/6 | 6/6 | 0/6 | – | – | similarly active | – | – | – | – | 108 | 121 | 142 | 146 | 6/6 | 0/6 | similarly active | –
